From patent US8633166B2, “Methicillin-resistant Staphylococcus aureus active metabolites” (priority 2009, dated 2014)
Converted amounts (≈) assume the structure as drawn.

How the values were obtained:
[1] = system: streptococci; assay: In vitro MIC, streptococci; type: cell-based, Streptococcus; details: highest concentrations considered for MIC readings
Procedure: (§1) All test articles were dissolved in DMSO. Stock solutions were prepared at 40-fold the highest concentration in the test plate. The final concentration of DMSO in the test system was 2.5%.
The medium employed for the MIC assay was Mueller Hinton II Broth (MHB II-Becton Dickinson, #212322, Lot #9044411) for most of the organisms. MHB II was supplemented with 2% lysed horse blood (Cleveland Scientific Lot #22299-1) to accommodate the growth of Streptococcus pneumoniae, Streptococcus pyogenes and Streptococcus agalactiae. The media were prepared at 102.5% the normal weight to offset the dilution created by the addition of 5 μL drug solution to each well of the microdilution panels. […]
Plates were stacked 3 high, covered with a lid on the top plate, placed in plastic bags, and incubated at 35° C. for approximately 18 hours for most of the isolates. The Streptococcus plates were read after 20 hours of incubation. […] The MIC was read and recorded as the lowest concentration of drug that inhibited visible growth of the organism.

[2] = system: Enterococcus faecalis; assay: In vitro MIC, broth microdilution (CLSI); type: cell-based
Procedure: as §1
(§2) The medium employed for the MIC assay was Mueller Hinton II Broth (MHB II-Becton Dickinson, #212322, Lot #9044411) for most of the organisms. MHB II was supplemented with 2% lysed horse blood (Cleveland Scientific Lot #22299-1) to accommodate the growth of Streptococcus pneumoniae, Streptococcus pyogenes and Streptococcus agalactiae. The media were prepared at 102.5% the normal weight to offset the dilution created by the addition of 5 μL drug solution to each well of the microdilution panels.
(§3) The MIC assay method followed the procedure described by the Clinical and Laboratory Standards Institute (see Clinical and Laboratory Standards Institute. Methods for Dilution Antimicrobial, Susceptibility Tests for Bacteria That Grow Aerobically; Approved Standard—Eighth Edition. CLSI document M07-A8 [ISBN 1-56238-689-1]. Clinical and Laboratory, Standards Institute, 940 West Valley Road, Suite 1400, Wayne, Pa. 19087-1898 USA, 2009) and employed automated liquid handlers to conduct serial dilutions and liquid transfers. Automated liquid handlers included the Multidrop 384 (Labsystems, Helsinki, Finland), Biomek 2000 and Multimek 96 (Beckman Coulter, Fullerton Calif.).
(§4) The wells of Columns 2-12 of standard 96-well microdilution plates (Falcon 3918) were filled with 150 μL of DMSO on the Multidrop 384. The drugs (300 μL) were dispensed into Column 1 of the appropriate row in these plates. These would become the mother plates from which the test plates (daughter plates) were prepared. The Biomek 2000 completed serial transfers through Column 11 in the mother plates. The wells of Column 12 contained no drug and were the organism growth control wells in the daughter plates. The daughter plates were loaded with 185 μL of the appropriate test media (described above) using the Multidrop 384. The daughter plates were prepared on the Multimek 96 instrument which transferred 5 μL of drug solution from each well of a mother plate to each corresponding well of each daughter plate in a single step. Therefore, the test agents were maintained in solution in 100% DMSO up until the point of being added to the final test medium.
(§5) Standardized inoculum of each organism was prepared per CLSI methods (See Clinical and Laboratory Standards Institute. Performance Standards for Antimicrobial Susceptibility Testing; Nineteenth Informational Supplement. CLSI document M100-S19 [ISBN 1-56238-690-5]. Clinical and Laboratory Standards Institute, 940 West Valley Road, Suite 1400, Wayne, Pa. 19087-1898 USA, 2009.). Suspensions were prepared in MHB to equal the turbidity of a 0.5 McFarland standard. The suspensions were diluted 1:9 in broth appropriate to the organism. The inoculum for each organism was dispensed into sterile reservoirs divided by width (Beckman Coulter), and the Biomek 2000 was used to inoculate the plates. Daughter plates were placed on the Biomek 2000 work surface reversed so that inoculation took place from low to high drug concentration. The Biomek 2000 delivered 10 μL of standardized inoculum into each well. This yielded a final cell concentration in the daughter plates of approximately 5×10^5 colony-forming-units/mL. Thus, the wells of the daughter plates ultimately contained 185 μL of broth, 5 μL of drug solution, and 10 μL of bacterial inoculum. The final concentration of DMSO in the assay plate was 2.5%.
(§6) Plates were stacked 3 high, covered with a lid on the top plate, placed in plastic bags, and incubated at 35° C. for approximately 18 hours for most of the isolates. The Streptococcus plates were read after 20 hours of incubation. The microplates were viewed from the bottom using a plate viewer. […] The MIC was read and recorded as the lowest concentration of drug that inhibited visible growth of the organism.

[3] = system: Streptococcus agalactiae; assay: In vitro MIC, broth microdilution (CLSI); type: cell-based; details: MHB II with 2% lysed horse blood
Procedure: as §1, §2, §3, §4, §5, §6

[4] = system: Streptococcus pyogenes; assay: In vitro MIC, broth microdilution (CLSI); type: cell-based; details: MHB II with 2% lysed horse blood
Procedure: as §1, §2, §3, §4, §5, §6

[5] = system: Streptococcus pneumoniae; assay: In vitro MIC, broth microdilution (CLSI); type: cell-based; details: MHB II with 2% lysed horse blood
Procedure: as §1, §2, §3, §4, §5, §6

[6] = system: Staphylococcus epidermidis; assay: In vitro MIC, broth microdilution (CLSI); type: cell-based
Procedure: as §1, §2, §3, §4, §5, §6

[7] = system: Staphylococcus aureus; assay: In vitro MIC, broth microdilution (CLSI); type: cell-based
Procedure: as §1, §2, §3, §4, §5, §6

[8] = system: Enterococcus faecium; assay: In vitro MIC, broth microdilution (CLSI); type: cell-based
Procedure: as §1, §2, §3, §4, §5, §6

## C[C@@H]1O[C@@H](Oc2c(-c3ccc(O)cc3)oc3cc(O)cc(O)c3c2=O)[C@H](OC(=O)/C=C/c2ccc(O)cc2)[C@H](OC(=O)/C=C/c2ccc(O)cc2)[C@H]1O [Compound 1, kaempferol 3-O-α-L-(2″,3″-di-E-p-coumaroyl)rhamnoside]
[1]
  activity against the streptococci: Neither compound was active
[2]; MMX 101, CLSI QC, ATCC 29212
  MIC: 8 µg/mL (≈ 11 µM)
[2]; MMX 742, VSE, CHP
  MIC: >8 µg/mL
[2]; MMX 3199, VSE, UCLA
  MIC: 4 µg/mL (≈ 5.52 µM)
[2]; MMX 3821, VRE, Mt. Sinai
  MIC: 4 µg/mL (≈ 5.52 µM)
[2]; MMX 3896, VSE, Mt. Sinai
  MIC: 4 µg/mL (≈ 5.52 µM)
[2]; MMX 4131, VRE, CHP
  MIC: 1 µg/mL (≈ 1.38 µM)
[2]; MMX 4160, VRE, UCLA
  MIC: 4 µg/mL (≈ 5.52 µM)
[3]; MMX 3743, Mt. Sinai
  MIC: >16 µg/mL
[3]; MMX 4093, UCLA
  MIC: >16 µg/mL
[3]; MMX 4106, CHP
  MIC: >16 µg/mL
[4]; MMX 718, CHP
  MIC: >16 µg/mL
[4]; MMX 2572, UCLA
  MIC: >16 µg/mL
[4]; MMX 3928, Mt. Sinai
  MIC: >16 µg/mL
[5]; MMX 748, PRSP, CHP
  MIC: >16 µg/mL
[5]; MMX 866, PSSP, CHP
  MIC: >16 µg/mL
[5]; MMX 1195, CLSI QC, ATCC 49619
  MIC: >16 µg/mL
[5]; MMX 3130, PSSP, UCLA
  MIC: >16 µg/mL
[5]; MMX 3160, PRSP, UCLA
  MIC: >16 µg/mL
[5]; MMX 3937, PSSP, Mt. Sinai
  MIC: >16 µg/mL
[5]; MMX 3953, PRSP, Mt. Sinai
  MIC: >16 µg/mL
[6]; MMX 762, MRSE, CHP
  MIC: >8 µg/mL
[6]; MMX 826, MRSE, UCLA
  MIC: 8 µg/mL (≈ 11 µM)
[6]; MMX 835, MSSE, UCLA
  MIC: 4 µg/mL (≈ 5.52 µM)
[6]; MMX 3703, MSSE, CHP
  MIC: 4 µg/mL (≈ 5.52 µM)
[6]; MMX 3752, MRSE, Mt. Sinai
  MIC: >8 µg/mL
[6]; MMX 3763, MSSE, Mt. Sinai
  MIC: 4 µg/mL (≈ 5.52 µM)
[7]; MMX 100, CLSI QC, ATCC 29213
  MIC: >8 µg/mL
[7]; MMX 753, MSSA, CHP
  MIC: >8 µg/mL
[7]; MMX 758, MRSA, CHP
  MIC: >8 µg/mL
[7]; MMX 2055, MRSA, UCLA
  MIC: >8 µg/mL
[7]; MMX 2063, MSSA, UCLA
  MIC: >8 µg/mL
[7]; MMX 3856, MSSA, Mt. Sinai
  MIC: >8 µg/mL
[7]; MMX 3894, MRSA, Mt. Sinai
  MIC: >8 µg/mL
[8]; MMX 0799, VSE, CHP
  MIC: >8 µg/mL
[8]; MMX 0845, VSE, UCLA
  MIC: 1 µg/mL (≈ 1.38 µM)
[8]; MMX 1238, VRE, Mt. Sinai
  MIC: 0.5 µg/mL (≈ 0.69 µM)
[8]; MMX 1259, VSE, Mt. Sinai
  MIC: >8 µg/mL
[8]; MMX 4024, VRE, CHP
  MIC: >8 µg/mL
[8]; MMX 4048, VRE, UCLA
  MIC: >8 µg/mL
